Test system: dithranol-induced mouse ear inflammation (edema)
Experiment: Dithranol-induced mouse ear inflammation test
Format: in vivo
Details: Swiss male mice, 10 per group; 20 μL solution painted on left ear at Time 0 and +16 h; dithranol 30 μg in 20 μL acetone at +0.5 h; 6 mm ear disks weighed at +24 h
Method: Dithranol is a known inflammatory agent, which induces inflammatory response by releasing free radicals.
The modulatory effects of the compositions of the present invention were tested using the dithranol-induced mouse ear inflammation test described in “Methods in Molecular Biology, 2003, Vol 225; 129-137”, and in “Br. J. Pharmacol. 1991, 104; 990-994”.
Swiss male mice (10 per group) of 6 to 8 weeks old; weighing 28-32 g each; were used. Mice had free access to food and water.
The compounds of the invention were dissolved in water or ethanol (depending on their solubility). 20 μL of the solution containing the compound of the invention, or their combinations, was painted on the left ear (back and front; 10+10 μL) using a Hamilton syringe within 30 seconds (Time 0) The compound tested, and their combinations, are reported in the following
A similar volume of vehicle (water or ethanol) was applied to the other ear (control ear).
After 30 minutes (Time+0.5 h) the irritant, dithranol, 30 μg in 20 μL of acetone was painted on the left ear (back and front, 10+10 μL).
A similar volume of acetone was applied to the other ear.
A group of mice treated only with dithranol (no treatment with the compounds of the invention) was present (control group).
An electric hair dryer for a few seconds to evaporate the solvent was used.
The compounds of the invention were administered again 16 hours from the first treatment (Time+16 h).
After 24 hours from the first treatment (Time+24 h) the animals were killed with an overdose of diethyl ether and the ears were cut off.
A disk from the middle part of each ear was cut off, using a sharp punch 6 mm in diameter.
The disks samples were weighted on a suitable balance, and the extent of the edema (as percentage of inhibition) was calculated according to the formula reported on page 991, right column, of “Br. J. Pharmacol. 1991, 104; 990-994” mentioned above.

| Compound | % Inhibit. (extent of the edema as percentage of inhibition) [%] |
| --- | --- |
| O=C(O)CCCC[C@@H]1SC[C@@H]2NC(=O)N[C@@H]21 [Biotin] | 6 |
| CC(C)=CCC[C@](C)(O)C1CC=C(C)CC1 (stereo partly drawn) [Bisabolol] | 6 |
| C[N+](C)(C)C[C@H](O)CC(=O)[O-] [L-carnitine] | 9 |
| CC(C)(CO)[C@@H](O)C(=O)NCCCO [Panthenol] | 7 |
| Vitamin B12 | 8 |
| Vitamin E | 8 |

Source: patent publication US20140294921A1, “COMPOSITION FOR TIPICAL USE FOR TREATING SKIN DISORDERS” (SIGMA-TAU INDUSTRIE FAMACEUTICHE RIUNITE S.P.A., priority 2010, published 2014)
